# Assay results taken from the COVID Moonshot data (paper PMC7615835).
# Several values for one entry are separate records, joined by “and”; a condition that tells them apart may be missing. Equal values may be shown once.
# Molecular target: SARS-CoV-2 Main Protease (SARS-CoV-2) (UniProt P0DTD1)
row,SMILES,IC50
1,Cc1cn2ccc(C(=O)Nc3nc(-c4cnn(C)c4)cs3)cc2n1,> 99.5 µM
2,O=C(CC1(C(=O)Nc2cncc3ccccc23)CCOc2ccc(Cl)cc21)N1C[C@@H]2C[C@H]1CN2CC(F)F (stereo in doubt),3.78 µM
3,O=C(CN(C(=O)Cn1ccnn1)c1ccc(-c2ccccn2)cc1)N1CCNCC1,> 99.5 µM
4,O=C(NC(c1ccccc1)c1ccccc1)[C@H]1CN(C(=O)CCl)CCN1S(=O)(=O)c1ccsc1 (stereo in doubt),0.832 µM
5,COc1ccc2cncc(NC(=O)C3CCNc4cc(Cl)c(Cl)cc43)c2c1 (stereo unspecified),0.131 µM
6,COc1ccc(-c2ccsc2S(=O)(=O)N2CCN(C(=O)CCl)CC2)cc1,1.05 µM
7,O=C(NCCc1cccc(F)c1)C(c1cccnc1)N(C(=O)c1cocn1)c1ccc(Cn2cccn2)cc1 (stereo unspecified),8.34 µM
8,CC(NC(=O)c1ccc2oc(=S)[nH]c2c1)c1nnc2ccccn12 (stereo unspecified),> 99.5 µM
9,CNC(=O)CN1C[C@@H](C(=O)Nc2cncc3cc(Cl)ccc23)c2cc(Cl)ccc2C1=O (stereo in doubt),0.939 µM
10,COc1cc(Cl)cc(CC(=O)Nc2cnccc2C)c1,36.8 µM
11,CC(CCC(OC1OC(COC2OC(CO)C(O)C(O)C2O)C(O)C(O)C1O)C(C)(C)O)C1CCC2(C)C3CC=C4C(CCC(O)C4(C)C)C3(C)C(O)CC12C (stereo unspecified),> 99.5 µM
12,CC(C)(O)c1ccc2cncc(NC(=O)C3CN(S(=O)(=O)CC4(C#N)CC4)Cc4ccc(Cl)cc43)c2c1 (stereo unspecified),1.14 µM
13,COC(=O)/C=C/C(=O)N(C(=O)[C@@H]1CCOc2ccc(Cl)cc21)c1cncc2ccccc12 (stereo in doubt),0.5 µM
14,Cc1ccc(N(Cc2cscn2)C(=O)Cc2cncc3ccccc23)cc1,8.09 µM
15,O=C(NCCc1cccc(F)c1)C(c1cccnc1)N(C(=O)c1cocn1)c1ccc2c(c1)CCOC2 (stereo unspecified),> 99.5 µM
16,CS(=O)(=O)c1ccc2c(NC(=O)C3CN(S(=O)(=O)CC4(C#N)CC4)Cc4ccc(Cl)cc43)cncc2c1 (stereo unspecified),0.0582 µM and 0.117 µM
17,O=C(Nc1cncc2ccccc12)N1CCOc2ccc(Cl)cc21,11.4 µM
18,COc1c(O[C@@H]2O[C@H](CO)[C@@H](O)[C@H](O)[C@H]2O)cc2oc(-c3ccc(O)cc3)cc(=O)c2c1O (stereo in doubt),> 99.5 µM
19,COc1ccc2c(c1)c(N)nn2C(=O)Cc1cccc(Cl)c1,> 99.5 µM
20,CS(=O)(=O)c1ccc2c(NC(=O)C3CN(CC(=O)NCC4CC4)C(=O)c4ccc(Cl)cc43)cncc2c1 (stereo unspecified),0.179 µM and 0.174 µM
21,COc1ccc2c(c1)CN(C(=O)CCl)C(c1ccccc1)C2 (stereo unspecified),3.74 µM
22,CC(C)CS(=O)(=O)N1Cc2ccc(Cl)cc2C(C(=O)Nc2cncc3ccccc23)C1 (stereo unspecified),0.107 µM
23,O=C(Cc1cc(Cl)cc(Nc2cnc(Br)c(Cl)n2)c1)Nc1cncc2ccccc12,1.94 µM
24,O=C(Cc1cc(Cl)cc(Nc2nnc(-c3ccncc3)s2)c1)Nc1cncc2ccccc12,2.19 µM

row,SMILES,IC50
1,O=C(Cn1nnc2ccccc21)N(Cc1cccc(Cl)c1)c1ccc(N2CCCCC2)cc1,3.65 µM
2,O=C1CCCN(S(=O)(=O)c2cccc(F)c2)CC1,> 99.5 µM
3,O=C(Cc1cc(Cl)cc(Nc2ccc(Br)c(Cl)c2Cl)c1)Nc1cncc2ccccc12,2.41 µM
4,O=C(Cc1cc(Cl)cc(NCCCN2CCS(=O)(=O)CC2)c1)Nc1cncc2ccccc12,1.92 µM
5,Cc1cc(C)nc(C#N)n1,> 99.5 µM
6,O=C(CCl)N1CCCN(S(=O)(=O)c2cccc(F)c2)CC1,17.2 µM
7,Cc1ccncc1NC(=O)Cc1cc(Cl)cc(-c2ccc(C)c(F)c2F)c1,31.9 µM
8,Cc1nc2scc(C)n2c1CN1CCN(Cc2ccsc2)CC1,> 99.5 µM
9,Cc1cc(C)c(C)c(S(=O)(=O)N2CCN(C(=O)c3cc(=O)[nH]c4ccccc34)CC2)c1C,8.19 µM and 8.74 µM
10,Cn1c(CNCC2(C(=O)Nc3cncc4ccccc34)CCOc3ccc(Cl)cc32)nc2c1c(=O)[nH]c(=O)n2C (stereo unspecified),> 99.5 µM
11,O=C(COCC(=O)N1CCCC1)NC(C(=O)Nc1cncc2ccccc12)c1cccc(Cl)c1 (stereo unspecified),6.35 µM and 8.47 µM
12,N#Cc1cc(N(C(=O)c2ccco2)C(C(=O)NCCc2cccc(F)c2)c2cccnc2)ccc1Oc1ccc(C(F)(F)F)cc1 (stereo unspecified),> 99.5 µM
13,C=CC(=O)Nc1ccc(O)c(C(=O)NC[C@@H](O)c2ccc3ccccc3c2)c1 (stereo in doubt),> 99.5 µM
14,O=S(=O)(Nc1cc2c(cc1OCc1ccccc1)OCO2)c1ccccc1,> 99.5 µM
15,NC(=O)c1c(Nc2cc(Cl)cc(CC(=O)Nc3cncc4ccccc34)c2)sc2c1CCCC2,2.43 µM
16,Cn1cc(CN(C(=O)Cn2nnc3ccccc32)c2ccc(N3CCCCC3)cc2)cn1,> 99.5 µM
17,O=C(Cc1cccc(Cl)c1)Nc1cncc2c1CCCC2,> 99.5 µM
18,Cc1cc(C)[n+](C)c(C#N)n1,> 99.5 µM
19,O=C(Cc1cccc(Cl)c1)Nc1cncc2nc[nH]c12,13.3 µM
20,C[C@H](Nc1cc(Cl)cc(CC(=O)Nc2cncc3ccccc23)c1)c1ccc([N+](=O)[O-])cc1 (stereo in doubt),1.45 µM
21,O=C(Nc1cccc(C(F)(F)F)c1)Nc1ccccc1Sc1ncc([N+](=O)[O-])s1,6.26 µM
22,CNC(=O)CN1C[C@H](C(=O)Nc2cncc3cccc(Cl)c23)c2cc(Cl)ccc2C1=O (stereo in doubt),0.0964 µM
23,Cc1ccncc1NC(=O)Cc1cccc(F)c1,96.9 µM and 94.8 µM
24,CNC(=O)CN1C[C@@H](C(=O)Nc2cncc3cccc(Cl)c23)c2cc(Cl)ccc2C1=O (stereo in doubt),14.6 µM

row,SMILES,IC50
1,O=C(NCCc1cccc(F)c1)C(c1cccnc1)N(C(=O)c1cocn1)c1ccc(N2CCCC2=O)cc1 (stereo unspecified),76.6 µM
2,CSc1ncc(C#N)c(Nc2cc(Cl)cc(CC(=O)Nc3cncc4ccccc34)c2)n1,1.84 µM
3,COC1(CS(=O)(=O)N2Cc3ccc(Cl)cc3C(C(=O)Nc3cncc4ccc(C(C)(C)O)cc34)C2)CC1 (stereo unspecified),1.77 µM
4,COC(=O)C1CC1C(=O)N1CCC(c2c[nH]c3ncccc23)CC1 (stereo unspecified),> 99.5 µM
5,O=C(Nc1cncc2ccccc12)C1CCOc2c(OCC3CC3)cc(Cl)cc21 (stereo unspecified),> 2.49 µM
6,O=C(NCCc1cccc(F)c1)C(c1cccnc1)N(C(=O)c1cnc[nH]1)c1cccc(Oc2cccnn2)c1 (stereo unspecified),> 99 µM
7,O=C(Cc1cc(Cl)cc(Nc2ccc(Br)c3ccccc23)c1)Nc1cncc2ccccc12,1.98 µM
8,O=C(Cc1cccc(Cl)c1)Nc1cn[nH]c1,> 99.5 µM
9,CC(C)(C)c1ccc(N(C(=O)c2cocn2)C(C(=O)NCCc2cccc(F)c2)c2cccnc2)cc1 (stereo unspecified),0.557 µM
10,CCC(C(=O)O)N1CCCC(NC(=O)c2ccc3ccccc3c2)C1 (stereo unspecified),> 99.5 µM
11,CS(=O)(=O)Nc1ccc2c(NC(=O)Cc3cccc(Cl)c3)cncc2c1,0.882 µM
12,COC(=O)[C@@H]1CC[C@H](NC(=O)C(c2cccnc2)N(C(=O)c2cocn2)c2ccc(C(C)(C)C)cc2)C1 (stereo in doubt),2.38 µM
13,Cc1cc2c(N)nc(=O)n(CC(=O)Nc3cccc(Cl)c3)c2s1,> 99.5 µM
14,O=C(NCCc1cccc(F)c1)C(c1cccnc1)N(C(=O)c1ccco1)[C@H]1C[C@H](c2cc(F)cc(F)c2)C1 (stereo partly specified),> 99.5 µM
15,CC(C)(C)c1ccc(N(C(=O)c2cnon2)C(C(=O)NCCc2cccc(F)c2)c2cccnc2)cc1 (stereo unspecified),8.41 µM
16,Cc1c(Br)cnc(Nc2cc(Cl)cc(CC(=O)Nc3cncc4ccccc34)c2)c1[N+](=O)[O-],2.17 µM
17,C[C@H]1C[C@H](C(=O)Nc2cncc3ccccc23)c2cc(Cl)ccc2O1 (stereo in doubt),52.1 µM
18,Cc1ccncc1NC(=O)C1(c2cccc(Cl)c2)CC1,> 99.5 µM
19,O=C(COc1cccc(Cl)c1)Nc1cncc2ccccc12,11.2 µM
20,O=C(Nc1cncc2ccccc12)C(CO)c1ccc(Cl)c(Cl)c1 (stereo unspecified),19.3 µM
21,Cc1ccncc1NC(=O)Cc1cc(Cl)cc(S(N)(=O)=O)c1,14.6 µM
22,CC(C)(C)c1ccc(N(C(=O)c2nnc(O)cc2O)C(C(=O)NCCc2cccc(F)c2)c2cccnc2)cc1 (stereo unspecified),> 99.5 µM
23,O=C(Cc1cc(Cl)cc(NCc2ccc(Cl)c(C(F)(F)F)c2)c1)Nc1cncc2ccccc12,2.98 µM
24,c1ccc(-c2cc(Sc3nnc(-c4cccs4)o3)n3ncnc3n2)cc1,0.221 µM

row,SMILES,IC50
1,O=C(C1CCOc2cc(Cl)ccc21)N(Cc1c[nH]c(=O)[nH]c1=O)c1cncc2ccccc12 (stereo unspecified),7.14 µM
2,Cc1ccncc1NC(=O)Nc1cccc(C#N)c1,> 99 µM
3,CS(=O)(=O)Nc1ccc2cncc(NC(=O)C3CN(S(=O)(=O)CC4(C#N)CC4)Cc4ccc(Cl)cc43)c2c1 (stereo unspecified),0.267 µM
4,O=C(Nc1nn2cnnc2s1)c1csc(-c2ccccc2)n1,> 99.5 µM
5,Nc1nn(C(=O)C2CCOc3ccc(Cl)cc32)c2cc(F)ccc12 (stereo unspecified),> 99.5 µM
6,CC(C)(C)c1ccc(N(C(=O)c2nc(=O)[nH][nH]2)C(C(=O)NCCc2cccc(F)c2)c2cccnc2)cc1 (stereo unspecified),> 99.5 µM
7,O=C(Cc1cc(Cl)cc(Nc2c(Cl)cccc2[N+](=O)[O-])c1)Nc1cncc2ccccc12,2.37 µM
8,O=C(Nn1nnc2ccccc21)C(Cc1cccc(Cl)c1)c1ccc(N2CCCCC2=O)cc1 (stereo unspecified),50.9 µM
9,COc1ccc(C(Cc2ccsc2)C(=O)Nc2n[nH]c3ccccc23)cc1 (stereo unspecified),> 99.5 µM
10,O=C(NCC(c1ccccc1)c1c[nH]c2ccccc12)c1cnccn1 (stereo unspecified),> 99.5 µM
11,Cc1nc(C(=O)N(c2ccc(C(C)(C)C)cc2)C(C(=O)NCCc2cccc(F)c2)c2cccnc2)nn1-c1nnc[nH]1 (stereo unspecified),> 99.5 µM
12,Cc1[nH]c2ccccc2c1C(=O)CSc1nc2cc(Cl)cnc2[nH]1,> 99.5 µM
13,CCOC(=O)/C=C/N1CCN(S(=O)(=O)c2ccccc2)CC1,30 µM
14,O=C(Nc1cncc2ccccc12)C1CN(C(=O)c2cnco2)Cc2ccc(Cl)cc21 (stereo unspecified),1.07 µM
15,O=C(Nc1cncc2c1CCCC2)[C@@H]1CNS(=O)(=O)c2ccc(Cl)cc21 (stereo in doubt),0.205 µM
16,O=C(Cc1cncnc1)Nc1cc(F)cc(OC2CC(=O)N2)c1 (stereo unspecified),24.6 µM and 25.3 µM
17,O=C(NCCc1cccc(F)c1)C(c1cccnc1)N(C(=O)c1cnc[nH]1)c1cccc(C2COC2)c1 (stereo unspecified),> 99 µM
18,O=C(Cn1nnc2ccccc21)N(CC1CCOC1)c1ccc(C2CCNCC2)cc1 (stereo unspecified),> 99.5 µM
19,CC(C)(C)c1ccc(N(C(=O)c2cn(C3COCC3=O)nn2)C(C(=O)NCCc2cccc(F)c2)c2cccnc2)cc1 (stereo unspecified),19.5 µM
20,CCN(C)S(=O)(=O)N1Cc2ccc(Cl)cc2C2(CCN(c3cncc4ccccc34)C2=O)C1 (stereo unspecified),0.563 µM
21,O=C(Cc1cc(Cl)cc(N2CCC(Oc3ccccc3)CC2)c1)Nc1cncc2ccccc12,1.73 µM
22,Cc1sc2ncnc(N3CCc4c(ncn4C4CC4)C3)c2c1C,> 99.5 µM
23,Cc1ccn2cnnc2c1NC(=O)Cc1cccc(Cl)c1,75.3 µM
24,O=C(Cc1cccc(Cl)c1)Nn1nnc2ccccc21,5.8 µM
